Structures can show the parent of a compound that is named as a salt.
molecular target: T1, recombinant human baculovirus-expressed GST-tagged FASN (Homo sapiens, UniProt P49327); test: FASN enzyme activity assay, fluorescence-based detection of CoA with CPM; format: biochemical; details: 5 nM FASN, 150 μM NADPH, 10 μM acetyl-CoA, 25 μM malonyl-CoA, 90 minutes incubation; read-out: IC50 data for Compounds of Formulae I-V/V(a): Activity
T1 construct: GST
Procedure, shortened: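 Human GST-tagged FASN, baculovirus-expressed (5 nM), in 50 mM HEPES pH 7.5 with 150 μM NADPH, 10 μM acetyl-CoA, 25 μM malonyl-CoA, 0.5% DMSO; malonyl-CoA-started, 90 min. Released CoA detected with CPM (50 μM dilution), 30 min, fluorescence ex 390/em 530. IC50 from variable-slope sigmoidal fit of % inhibition versus log concentration.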

T1 sequence (P49327 whole entry): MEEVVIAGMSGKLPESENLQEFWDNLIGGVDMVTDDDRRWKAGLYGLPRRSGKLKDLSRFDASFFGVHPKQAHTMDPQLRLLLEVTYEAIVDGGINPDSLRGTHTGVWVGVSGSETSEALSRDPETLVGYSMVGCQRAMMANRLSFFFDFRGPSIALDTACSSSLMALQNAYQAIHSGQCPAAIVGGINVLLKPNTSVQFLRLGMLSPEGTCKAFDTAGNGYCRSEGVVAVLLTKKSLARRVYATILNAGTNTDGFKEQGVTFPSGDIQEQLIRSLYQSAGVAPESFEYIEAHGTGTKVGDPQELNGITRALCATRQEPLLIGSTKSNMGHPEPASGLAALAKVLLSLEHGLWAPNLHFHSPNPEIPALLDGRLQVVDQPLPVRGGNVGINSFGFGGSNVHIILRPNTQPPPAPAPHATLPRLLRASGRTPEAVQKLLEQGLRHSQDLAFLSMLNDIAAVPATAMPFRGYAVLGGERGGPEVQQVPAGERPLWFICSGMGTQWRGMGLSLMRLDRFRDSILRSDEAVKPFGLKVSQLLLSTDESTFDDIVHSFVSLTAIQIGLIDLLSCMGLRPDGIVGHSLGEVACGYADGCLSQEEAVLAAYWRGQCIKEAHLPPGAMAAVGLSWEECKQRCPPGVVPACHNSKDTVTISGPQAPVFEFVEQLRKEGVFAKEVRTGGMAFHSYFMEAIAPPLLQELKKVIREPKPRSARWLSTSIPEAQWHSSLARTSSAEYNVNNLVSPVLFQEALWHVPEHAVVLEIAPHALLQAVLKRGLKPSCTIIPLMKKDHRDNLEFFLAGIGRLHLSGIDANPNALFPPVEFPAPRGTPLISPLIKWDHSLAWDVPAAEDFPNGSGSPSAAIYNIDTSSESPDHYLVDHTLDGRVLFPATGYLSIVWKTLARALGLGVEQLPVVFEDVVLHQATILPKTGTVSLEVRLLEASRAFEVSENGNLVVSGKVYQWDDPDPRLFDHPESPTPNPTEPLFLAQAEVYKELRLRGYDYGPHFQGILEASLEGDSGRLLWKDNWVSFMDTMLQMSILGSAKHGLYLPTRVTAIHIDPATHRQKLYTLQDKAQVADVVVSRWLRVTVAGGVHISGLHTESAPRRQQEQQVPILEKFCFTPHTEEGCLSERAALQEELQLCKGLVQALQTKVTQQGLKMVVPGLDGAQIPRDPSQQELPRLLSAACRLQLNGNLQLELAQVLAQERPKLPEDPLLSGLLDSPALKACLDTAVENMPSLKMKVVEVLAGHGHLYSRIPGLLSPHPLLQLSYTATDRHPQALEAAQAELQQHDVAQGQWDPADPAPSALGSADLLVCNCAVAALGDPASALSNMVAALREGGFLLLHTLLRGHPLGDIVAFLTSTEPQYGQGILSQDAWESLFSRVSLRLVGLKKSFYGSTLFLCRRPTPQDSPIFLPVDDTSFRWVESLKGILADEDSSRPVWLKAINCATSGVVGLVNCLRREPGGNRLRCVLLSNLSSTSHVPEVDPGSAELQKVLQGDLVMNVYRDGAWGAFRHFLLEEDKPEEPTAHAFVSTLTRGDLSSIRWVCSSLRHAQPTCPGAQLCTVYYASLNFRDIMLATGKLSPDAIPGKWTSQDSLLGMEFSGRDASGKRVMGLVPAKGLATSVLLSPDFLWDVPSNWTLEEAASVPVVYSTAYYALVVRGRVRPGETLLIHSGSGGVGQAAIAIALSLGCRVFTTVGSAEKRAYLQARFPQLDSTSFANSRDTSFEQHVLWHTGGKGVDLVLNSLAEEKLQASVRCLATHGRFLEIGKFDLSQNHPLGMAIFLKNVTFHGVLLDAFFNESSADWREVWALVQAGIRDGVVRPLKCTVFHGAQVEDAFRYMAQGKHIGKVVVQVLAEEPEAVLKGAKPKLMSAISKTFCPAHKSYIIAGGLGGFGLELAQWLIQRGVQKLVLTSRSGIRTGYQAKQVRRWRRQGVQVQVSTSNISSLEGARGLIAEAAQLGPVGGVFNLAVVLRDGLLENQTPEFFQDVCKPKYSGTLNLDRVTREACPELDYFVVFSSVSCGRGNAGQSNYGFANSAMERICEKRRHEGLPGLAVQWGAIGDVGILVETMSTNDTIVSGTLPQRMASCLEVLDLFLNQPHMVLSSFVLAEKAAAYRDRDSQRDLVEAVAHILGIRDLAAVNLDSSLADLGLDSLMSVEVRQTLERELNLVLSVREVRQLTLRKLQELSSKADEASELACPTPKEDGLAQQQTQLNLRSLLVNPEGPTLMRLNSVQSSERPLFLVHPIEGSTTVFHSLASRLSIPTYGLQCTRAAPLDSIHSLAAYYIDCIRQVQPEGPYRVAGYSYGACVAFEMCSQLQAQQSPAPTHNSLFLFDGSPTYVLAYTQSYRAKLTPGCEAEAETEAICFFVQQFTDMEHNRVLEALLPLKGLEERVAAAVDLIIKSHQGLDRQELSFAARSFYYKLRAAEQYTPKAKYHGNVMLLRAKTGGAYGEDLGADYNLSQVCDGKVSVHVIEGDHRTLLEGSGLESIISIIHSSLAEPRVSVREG

IC50 | SMILES
100 to 999 nM | CC1(C(=O)N2CCC(Oc3ccc(-c4cnc5ccccc5c4)cc3)CC2)CCCO1 (stereo not drawn) [Example 115, (2-Methyltetrahydrofuran-2-yl)-[4-(4-quinolin-3-yl-phenoxy)-piperidin-1-yl]-methanone, HCl]
1 to 99 nM | CC1(C(=O)N2CCC(Oc3ccc(-c4cnc5ccccc5c4)cc3)CC2)OCCO1 [Example 116, (2-Methyl-1,3-dioxolan-2-yl)-[4-(4-quinolin-3-yl-phenoxy)-piperidin-1-yl]-methanone, HCl]
1000 to 10000 nM | CS(=O)(=O)CC(=O)N1CCC(Oc2ccc(-c3cnc4ccccc4c3)cc2)CC1 [Example 117, 2-Methanesulfonyl-1-[4-(4-quinolin-3-yl-phenoxy)-piperidin-1-yl]-ethanone, HCl]
1000 to 10000 nM | O=C(C1CCCS1(=O)=O)N1CCC(Oc2ccc(-c3cnc4ccccc4c3)cc2)CC1 (stereo not drawn) [Example 118, (1,1-Dioxidotetrahydrothiophen-2-yl)(4-(4-(quinolin-3-yl)phenoxy)piperidin-1-yl)methanone, HCl]
1000 to 10000 nM | O=C(C1CC(F)(F)C1)N1CCC(Oc2ccc(-c3cnc4ccccc4c3)cc2)CC1 [Example 119, (3,3-Difluorocyclobutyl)-[4-(4-quinolin-3-yl-phenoxy)-piperidin-1-yl]-methanone]
1 to 99 nM | O=C1CC[C@H](C(=O)N2CCC(Oc3ccc(-c4cnc5ccccc5c4)cc3)CC2)O1 [Example 120, (R)-5-[4-(4-Quinolin-3-yl-phenoxy)-piperidine-1-carbonyl]-dihydrofuran-2-one, HCl]
1000 to 10000 nM | Cc1ccoc1C(=O)N1CCC(Oc2ccc(-c3cnc4ccccc4c3)cc2)CC1 [Example 121, (3-Methylfuran-2-yl)-[4-(4-quinolin-3-yl-phenoxy)-piperidin-1-yl]-methanone, HCl]
1000 to 10000 nM | Cc1cc(C)c(C(=O)N2CCC(Oc3ccc(-c4cnc5ccccc5c4)cc3)CC2)o1 [Example 122, (3,5-Dimethylfuran-2-yl)-[4-(4-quinolin-3-yl-phenoxy)-piperidin-1-yl]-methanone, HCl]
1000 to 10000 nM | O=C(c1ncco1)N1CCC(Oc2ccc(-c3cnc4ccccc4c3)cc2)CC1 [Example 123, Oxazol-2-yl-[4-(4-quinolin-3-yl-phenoxy)-piperidin-1-yl]-methanone; HCl]
1000 to 10000 nM | O=C(c1ccon1)N1CCC(Oc2ccc(-c3cnc4ccccc4c3)cc2)CC1 [Example 124, Isoxazol-3-yl-[4-(4-quinolin-3-yl-phenoxy)-piperidin-1-yl]-methanone, HCl]
1000 to 10000 nM | O=C(c1ccsn1)N1CCC(Oc2ccc(-c3cnc4ccccc4c3)cc2)CC1 [Example 125, Isothiazol-3-yl-[4-(4-quinolin-3-yl-phenoxy)-piperidin-1-yl]-methanone, HCl]
1 to 99 nM | O=C(C1CCCO1)N1CCC(Oc2ccc(-c3cnc4ccccc4c3)cc2)CC1 (stereo not drawn) [Example 126, [4-(4-Quinolin-3-yl-phenoxy)-piperidin-1-yl]-(tetrahydrofuran-2-yl)-methanone, HCl]
1000 to 10000 nM | O=C(c1ccccc1)N1CCC(Oc2ccc(-c3cnc4ccccc4c3)cc2)CC1 [Example 127, Phenyl-[4-(4-quinolin-3-yl-phenoxy)-piperidin-1-yl]-methanone, HCl]
1000 to 10000 nM | Cc1ccc(C)c(C(=O)N2CCC(Oc3ccc(-c4cnc5ccccc5c4)cc3)CC2)c1 [Example 128, (2,5-Dimethylphenyl)-[4-(4-quinolin-3-yl-phenoxy)-piperidin-1-yl]-methanone, HCl]
1000 to 10000 nM | O=C(c1cccc(-c2ncc[nH]2)c1)N1CCC(Oc2ccc(-c3cnc4ccccc4c3)cc2)CC1 [Example 129, [3-(1H-Imidazol-2-yl)-phenyl]-[4-(4-quinolin-3-yl-phenoxy)-piperidin-1-yl]-methanone, HCl]
1000 to 10000 nM | O=C(c1cccc(-c2nc3ccccc3[nH]2)c1)N1CCC(Oc2ccc(-c3cnc4ccccc4c3)cc2)CC1 [Example 130, [3-(1H-Benzimidazol-2-yl)-phenyl]-[4-(4-quinolin-3-yl-phenoxy)-piperidin-1-yl]-methanone, HCl]
1 to 99 nM | CONC(=O)N1CCC(Oc2ccc(-c3ccc4cccnc4c3OC)cc2)CC1 [Example 131, N-Methoxy-4-[4-(8-methoxy-7-quinolyl)phenoxy]piperidine-1-carboxamide, HCl]
1000 to 10000 nM | CCC(=O)N1CCC(Oc2ccc(-c3cnc4ccccc4c3)cn2)CC1 [Example 132, 1-[4-(5-Quinolin-3-yl-pyridin-2-yloxy)-piperidin-1-yl]-propan-1-one, HCl]
1000 to 10000 nM | CC(C)C(=O)N1CCC(Oc2ccc(-c3cnc4ccccc4c3)cn2)CC1 [Example 133, 2-Methyl-1-[4-(5-quinolin-3-yl-pyridin-2-yloxy)-piperidin-1-yl]-propan-1-one, HCl]
1000 to 10000 nM | O=C(C1CC1)N1CCC(Oc2ccc(-c3cnc4ccccc4c3)cn2)CC1 [Example 134, Cyclopropyl-[4-(5-quinolin-3-yl-pyridin-2-yloxy)-piperidin-1-yl]-methanone, HCl]
100 to 999 nM | CCC(=O)N1CCC(Oc2ccc(-c3ccc4cccnc4c3)cn2)CC1 [Example 135, 1-[4-(5-Quinolin-7-yl-pyridin-2-yloxy)-piperidin-1-yl]-propan-1-one, HCl]

The next lines start with the compound.

SMILES | IC50
Cc1c(-c2ccc(OC3CCN(C(=O)N4CCCC4)CC3)cc2)ccc2cccnc12 [Example 94, [4-[4-(8-methyl-7-quinolyl)phenoxy]-1-piperidyl]-pyrrolidin-1-yl-methanone] | 1 to 99 nM
CNC(=O)N1CCC(Oc2ccc(-c3ccc4cccnc4c3C)cc2)CC1 [Example 95, N-methyl-4-[4-(8-methyl-7-quinolyl)phenoxy]piperidine-1-carboxamide] | 1 to 99 nM
CCCNC(=O)N1CCC(Oc2ccc(-c3ccc4cccnc4c3C)cc2)CC1 [Example 96, 4-[4-(8-methyl-7-quinolyl)phenoxy]-N-propyl-piperidine-1-carboxamide] | 1 to 99 nM
Cc1c(-c2ccc(OC3CCN(C(N)=O)CC3)cc2)ccc2cccnc12 [Example 97, 4-[4-(8-methyl-7-quinolyl)phenoxy]piperidine-1-carboxamide] | 100 to 999 nM
Cc1c(-c2ccc(OC3CCN(C(=O)N4CCCCC4)CC3)cc2)ccc2cccnc12 [Example 98, [4-[4-(8-methyl-7-quinolyl)phenoxy]-1-piperidyl]-(1-piperidyl)methanone] | 1 to 99 nM
Cc1c(-c2ccc(OC3CCN(C(=O)N4CCOCC4)CC3)cc2)ccc2cccnc12 [Example 99, [4-[4-(8-methyl-7-quinolyl)phenoxy]-1-piperidyl]-morpholino-methanone] | 100 to 999 nM
O=C(C1CC1)N1CCC(Oc2ccc(-c3cnc4ccccc4c3)cc2)CC1 [Example 100, Cyclopropyl-[4-(4-quinolin-3-yl-phenoxy)-piperidin-1-yl]-methanone,HCl] | 1 to 99 nM
O=C(C1CCC1)N1CCC(Oc2ccc(-c3cnc4ccccc4c3)cc2)CC1 [Example 101, Cyclobutyl-[4-(4-quinolin-3-yl-phenoxy)-piperidin-1-yl]-methanone,HCl] | 1 to 99 nM
O=C(C1CCCC1)N1CCC(Oc2ccc(-c3cnc4ccccc4c3)cc2)CC1 [Example 102, Cyclopentyl-[4-(4-quinolin-3-yl-phenoxy)-piperidin-1-yl]-methanone, 2HCl] | 100 to 999 nM
O=C([C@H]1CCCO1)N1CCC(Oc2ccc(-c3cnc4ccccc4c3)cc2)CC1 [Example 103, [4-(4-Quinolin-3-yl-phenoxy)-piperidin-1-yl]-(R)-tetrahydrofuran-2-yl-methanone, HCl] | 1 to 99 nM
O=C([C@@H]1CCCO1)N1CCC(Oc2ccc(-c3cnc4ccccc4c3)cc2)CC1 [Example 104, [4-(4-Quinolin-3-yl-phenoxy)-piperidin-1-yl]-(S)-tetrahydrofuran-2-yl-methanone, HCl] | 1 to 99 nM
COCC(=O)N1CCC(Oc2ccc(-c3cnc4ccccc4c3)cc2)CC1 [Example 105] | 1 to 99 nM
O=C(C1CCCCO1)N1CCC(Oc2ccc(-c3cnc4ccccc4c3)cc2)CC1 (stereo not drawn) [Example 106, [4-(4-Quinolin-3-yl-phenoxy)-piperidin-1-yl]-(tetrahydropyran-2-yl)-methanone, 2HCl] | 100 to 999 nM
O=C(C1CCOC1)N1CCC(Oc2ccc(-c3cnc4ccccc4c3)cc2)CC1 (stereo not drawn) [Example 107, [4-(4-Quinolin-3-yl-phenoxyl)-piperidin-1-yl]-(tetrahydrofuran-3-yl)-methanone, 2HCl] | 1000 to 10000 nM
CO[C@H](C)C(=O)N1CCC(Oc2ccc(-c3cnc4ccccc4c3)cc2)CC1 [Example 108, (R)-2-Methoxy-1-[4-(4-quinolin-3-yl-phenoxy)-piperidin-1-yl]-propan-1-one, 2HCl] | 100 to 999 nM
CO[C@@H](C)C(=O)N1CCC(Oc2ccc(-c3cnc4ccccc4c3)cc2)CC1 [Example 109, (S)-2-Methoxy-1-[4-(4-quinolin-3-yl-phenoxy)-piperidin-1-yl]-propan-1-one, 2HCl] | 1000 to 10000 nM
O=C(CO)N1CCC(Oc2ccc(-c3cnc4ccccc4c3)cc2)CC1 [Example 110, 2-Hydroxy-1-[4-(4-quinolin-3-yl-phenoxy)-piperidin-1-yl]-ethanone, 2HCl] | 1000 to 10000 nM
O=C(c1ccco1)N1CCC(Oc2ccc(-c3cnc4ccccc4c3)cc2)CC1 [Example 111, HCl] | 1000 to 10000 nM
CC(=O)N1CCC(Oc2ccc(-c3cnc4ccccc4c3)cc2)CC1 [Example 112, 1-[4-(4-Quinolin-3-yl-phenoxy)-piperidin-1-yl]-ethanone, HCl] | 100 to 999 nM
CC(C)C(=O)N1CCC(Oc2ccc(-c3cnc4ccccc4c3)cc2)CC1 [Example 113, 2-Methyl-1-[4-(4-quinolin-3-yl-phenoxy)-piperidin-1-yl]-propan-1-one, HCl] | 100 to 999 nM
CC(C)(C)C(=O)N1CCC(Oc2ccc(-c3cnc4ccccc4c3)cc2)CC1 [Example 114, 2,2-Dimethyl-1-[4-(4-quinolin-3-yl-phenoxy)-piperidin-1-yl]-propan-1-one, HCl] | 100 to 999 nM

From US9902696B2, “1,4-substituted piperidine derivatives” (Cephalon, Inc., priority 2015, dated 2018)
